This is an account of results in paper PMC9268166, “Modeling of Anticancer Sulfonamide Derivatives Lipophilicity by Chemometric and Quantitative Structure-Retention Relationships Approaches” (Molecules, 2022).

A short description of data set [1]: IAM chromatography (IAM-HPLC), IAM.PC.DD2 column. The data set is classed as physicochemical. As to conditions: for CHI (CHIIAM), Table S2: IAM chromatography, from mean of three retention times; for CHI (CHIIAM), Table S2 / logkIAM: pH 7.4; for logkIAM: logkIAM = 0.045 CHIIAM + 0.42; for CHIIAM: pH 7.4, 30 °C, acetonitrile gradient. The text has this: (§1) For this reason, the next step of our study concerns the characterization of investigated sulfonamide derivatives using a chromatographic approach. Generally, in RP-HPLC, the interactions between solutes and the stationary phase surface are mainly governed by lipophilicity. Consequently, RP-HPLC is the primary tool for assessing the lipophilicity of xenobiotics. […] Generally, the chemical character of target solutes determines interactions between the molecule and the stationary phase that may occur. Considering the large variety of RP-HPLC beds and differences in specific surface area, the energy of the sorbent’s intermolecular interactions between solutes and chemical structures, four different reversed-phase stationary phases and IAM column were investigated during this study. The lipophilicity index was presented as a logkw value, so the retention factor was extrapolated to the pure water after calculation using a protocol based on two gradient measurements and DryLab software.
(§2) Since the biomimetic chromatography experiments are carried out at physiological pH to compare obtained results, all chromatographic experiments have been carried out at pH 7.4. […] Consequently, the chromatography lipophilicity indices refer to the distribution coefficient (logD) values, which better reflect the lipophilicity of ionized substances under physiological conditions.
(§3) All HPLC experiments were carried out using a Prominence-1 LC-2030C 3D HPLC system (Shimadzu, Japan) equipped with a DAD detector and controlled by the LabSolution system (version 5.90 Shimadzu, Japan). The stock solutions of solutes were diluted to obtain 100 μg/mL concentrations, and the injected volume was 10 μL. During this study, six different columns in terms of chemical modification of stationary phases were used. Retention times (tR) of investigated sulfonamides were collected, and their detection in all systems was performed at the wavelength characteristic for each compound, summarized in Table S1. For all chromatography systems, analysis was carried out at 40 °C, except for IAM chromatography, in which oven temperature was set to 30 °C. The CHIIAM and CHI18 indices of the target sulfonamides derivatives were obtained using the protocol proposed by Valko and co-workers. C18 chromatography was performed on a Waters-C18 column (150 mm × 3.9 mm; 5.0 µm; Symmetry; USA), with a 1.5 mL/min flow rate. The mobile phase was ammonium acetate buffer (50 mM) at pH 7.4 and acetonitrile as an organic modifier. The linear gradient from 2 to 98% ACN was applied from 0 to 30 min. IAM chromatography was executed on an IAM.PC.DD2 column ([…] × 4.6 mm; 10.0 µm; Regis Technologies, Morton Grove, IL, USA) additionally equipped with an IAM guard column with the same flow rate of 1.5 mL/min. The mobile phase was sodium phosphate buffer (10 mM) at pH 7.4 and acetonitrile as the organic phase. The linear gradient from 0 to 85% was applied within 5.25 min.

Data set [2] is described as follows: C18 chromatography (RP-HPLC), chromatographic hydrophobicity index. It is filed as physicochemical. As to conditions: for chromatographic logD: Waters Symmetry C18 column, CHI log D = 0.0525 CHIC18 − 1.467, pH 7.4; for CHIC18: pH 7.4, 40 °C, acetonitrile gradient.
From the text: as §1, §2, §3

Data set [3] in a line: C8 chromatography (RP-HPLC), logkw from two gradients with DryLab. The data set is classed as physicochemical. As to conditions: for logkw, Table S4: C8 chromatography, pH 7.4, short and long gradient; for logkwC8: pH 7.4, 40 °C, retention factor extrapolated to 0% organic modifier.
From the text: as §1, §2
(§4) For C8, cyanopropyl, and phenyl chromatography, according to the assumption proposed by Snyder and co-workers, appropriate logkw values (i.e., the retention factor logk extrapolated to 0% organic modifier, as an alternative to logP) were obtained. […] Dwell volume for these HPLC systems was measured at 0.780 mL, whereas the obtained dead times for used HPLC columns were equal to 1.530 min, 1.252 min, and 2.335 min for C8, SB-CN, and UK-Phenyl, respectively. The mobile phase was ammonium acetate buffer (50 mM) at pH 7.4 and acetonitrile as an organic modifier in each system. C8 chromatography was performed on Unison UK-C8 column (150 × 2 mm; 3.0 µm. Imtakt; USA) with 0.3 mL/min flow rate. Analyses were carried out in linear gradient from 30 to 100% within 15 min in short gradient and 30 min in long gradient. The Agilent SB-CN column (150 × 4.6 mm; 3.5 µm; Zorbax; USA) was used for the cyanopropyl chromatography. The CN chromatography analyses were carried out in linear gradient from 20 to 100%, which was applied from 0 to 20 min in short gradient, and from 0 to 40 min in long gradient. The flow rate was 1.5 mL/min. The column Unison UK-Phenyl (150 × 2 mm; 3.0 µm; Imtakt; USA) was used to perform phenyl chromatography. The flow rate was set to 0.2 mL/min. The phenyl analyses were carried out in linear gradient from 40 to 100%, which was applied from 0 to 20 min in short gradient, and from 0 to 40 min in long gradient. Each HPLC analysis was run in triplicate; in Tables S2–S6, obtained retention times are listed, whereas representative chromatograms are shown in Figure 9.

Data set [4] in a line: Cyanopropyl (CN) chromatography, logkw from two gradients with DryLab. The data set is classed as physicochemical. As to conditions: for logkw, Table S5: Cyanopropyl chromatography, pH 7.4, short and long gradient; for logkwCN: pH 7.4, 40 °C, retention factor extrapolated to 0% organic modifier.
From the text: as §1, §2, §4

Data set [5] is described as follows: Phenyl (Ph) chromatography, logkw from two gradients with DryLab. The data set is classed as physicochemical. As to conditions: for logkw, Table S6: Phenyl chromatography, pH 7.4, short and long gradient; for logkwPh: pH 7.4, 40 °C, retention factor extrapolated to 0% organic modifier.
From the text: as §1, §2, §4

The subject of data set [6] is human colon cancer (HCT-116). Set-up: method as in PMID 29772699, PMID 28122174, PMID 27338337, PMID 26506328. As to conditions: HCT-116 cell line; cited from earlier work.

One may read the chromatographic logD as lipophilicity estimated from chromatographic retention. As a reminder, the pIC50 is the negative decadic logarithm of the IC50, by convention in mol/L. For the molecule `Cc1cc(S(=O)(=O)Nc2nnc(-c3ccccc3)c(=O)[nH]2)c(SCc2cccc3ccccc23)cc1Cl` [Compound 10], in data set [1], the “CHI (CHIIAM), Table S2” value was 39.1 and the logkIAM stood at 2.18. In addition, in data set [2], the chromatographic logD amounted to 2.96 and the CHIC18 stood at 84.30. Moreover, in data set [3], the “logkw, Table S4” value is reported as 4.211 and the logkwC8 is listed as 4.21. In addition, in data set [4], the “logkw, Table S5” value was found to be 2.251 and the logkwCN is recorded as 2.25. In data set [5], the “logkw, Table S6” value is given as 4.193 and the logkwPh was 4.19. Moreover, in data set [6], the pIC50 is recorded as 4.05.
Consider `Cc1cc(S(=O)(=O)Nc2nnc(Cc3ccccc3)c(=O)[nH]2)c(SCc2cc3c(cc2Cl)OCO3)cc1Cl` [Compound 11], for which, in data set [1], the “CHI (CHIIAM), Table S2” value was found to be 35.5 and the logkIAM stood at 2.02. In addition, in data set [2], the chromatographic logD turned out to be 2.75 and the CHIC18 was 80.30. In data set [3], the “logkw, Table S4” value was found to be 4.074 and the logkwC8 was 4.07. In data set [4], the “logkw, Table S5” value is on record as 2.130 and the logkwCN is 2.13. Moreover, in data set [5], the “logkw, Table S6” value turned out to be 3.824 and the logkwPh is 3.82. In data set [6], the pIC50 is reported as 4.06.
In the case of `Cc1cc(S(=O)(=O)Nc2nnc(Cc3ccccc3[N+](=O)[O-])c(=O)[nH]2)c(SCc2cc3c(cc2Cl)OCO3)cc1Cl` [Compound 12], in data set [1], the logkIAM turned out to be 2.00 and the CHIIAM was found to be 35.20. In data set [2], this molecule had a chromatographic logD of 2.7 and a CHIC18 of 79.30. In data set [3], the “logkw, Table S4” value came to 4.070 and the logkwC8 is 4.07. In data set [4], the “logkw, Table S5” value was 2.162 and the logkwCN is recorded as 2.16. Moreover, in data set [5], the “logkw, Table S6” value is listed as 3.897 and the logkwPh is reported as 3.90. In addition, in data set [6], the pIC50 is 4.06.
On to `Cc1cc(S(=O)(=O)Nc2nncc(-c3cccc(F)c3)n2)c(SCc2ccccc2)cc1Cl` [Compound 13], for which, in data set [1], the “CHI (CHIIAM), Table S2” value is recorded as 37.1 and the logkIAM was 2.09. In data set [2], this molecule registered a chromatographic logD of 2.62 and a CHIC18 of 77.90. In data set [3], the “logkw, Table S4” value turned out to be 4.030 and the logkwC8 is given as 4.03. Further, in data set [4], the “logkw, Table S5” value worked out at 2.037 and the logkwCN was 2.04. Moreover, in data set [5], the “logkw, Table S6” value came to 3.532 and the logkwPh is 3.53. Also, the pIC50 in data set [6] is reported as 4.12.
Regarding `COc1ccc(-c2cnnc(NS(=O)(=O)c3cc(C(=O)Nc4ccccc4)c(Cl)cc3SCc3ccccc3)n2)cc1` [Compound 14], in data set [1], the logkIAM is 2.03 and the CHIIAM was 35.80. In data set [2], this molecule came in with a chromatographic logD of 2.68 and a CHIC18 of 78.90. In data set [3], the “logkw, Table S4” value was determined as 4.130 and the logkwC8 is reported as 4.13. In addition, in data set [4], the “logkw, Table S5” value was 2.020 and the logkwCN was 2.02. Also, in data set [5], the “logkw, Table S6” value is 4.310 and the logkwPh is reported as 4.31. In data set [6], the pIC50 is listed as 4.11.
For `O=C(Nc1ccc(Cl)cc1)c1cc(S(=O)(=O)Nc2nncc(-c3ccc(C(F)(F)F)cc3)n2)c(SCc2ccccc2)cc1Cl` [Compound 15], in data set [1], the logkIAM came to 2.37 and the CHIIAM amounted to 43.40. Also, in data set [2], the chromatographic logD is 3.39 and the CHIC18 is 92.50. Moreover, in data set [3], the “logkw, Table S4” value was 4.530 and the logkwC8 is listed as 4.53. In data set [4], the “logkw, Table S5” value came to 2.642 and the logkwCN is 2.64. Besides, in data set [5], the “logkw, Table S6” value stood at 5.074 and the logkwPh is listed as 5.07. Moreover, the pIC50 in data set [6] is given as 4.19.
Take `COc1ccc(-c2cnnc(NS(=O)(=O)c3cc(C(=O)Nc4ccc(Cl)cc4)c(Cl)cc3SCc3ccccc3)n2)cc1` [Compound 16]: in data set [1], the logkIAM turned out to be 2.21 and the CHIIAM stood at 39.80. In data set [2], this molecule had a chromatographic logD of 3.04 and a CHIC18 of 85.90. Further, in data set [3], the “logkw, Table S4” value is 4.380 and the logkwC8 is reported as 4.38. For the same molecule, in data set [4], the “logkw, Table S5” value was found to be 2.471 and the logkwCN is 2.47. In addition, in data set [5], the “logkw, Table S6” value worked out at 4.476 and the logkwPh is given as 4.48. For the same molecule, the pIC50 in data set [6] is recorded as 4.12.
Consider `Cc1ccc(NC(=O)c2cc(S(=O)(=O)Nc3nncc(-c4ccc(C(F)(F)F)cc4)n3)c(SCc3ccccc3)cc2Cl)cc1` [Compound 17], for which, in data set [1], the logkIAM is 2.28 and the CHIIAM worked out at 41.40. In data set [2], this molecule had a chromatographic logD of 3.25 and a CHIC18 of 89.90. In addition, in data set [3], the “logkw, Table S4” value is given as 4.490 and the logkwC8 was 4.49. For the same molecule, in data set [4], the “logkw, Table S5” value was found to be 2.544 and the logkwCN was 2.54. Further, in data set [5], the “logkw, Table S6” value is recorded as 4.540 and the logkwPh is 4.54. In data set [6], the pIC50 is reported as 4.15.
For `COc1ccc(-c2cnnc(NS(=O)(=O)c3cc(C(=O)Nc4ccc(C)cc4)c(Cl)cc3SCc3ccccc3)n2)cc1` [Compound 18], in data set [1], the logkIAM is listed as 2.11 and the CHIIAM was determined as 37.50. In data set [2], this molecule came in with a chromatographic logD of 2.88 and a CHIC18 of 82.80. In data set [3], the “logkw, Table S4” value is listed as 4.280 and the logkwC8 is listed as 4.28. Besides, in data set [4], the “logkw, Table S5” value was 2.358 and the logkwCN is reported as 2.36. In data set [5], the “logkw, Table S6” value is reported as 4.228 and the logkwPh is given as 4.23. Besides, the pIC50 in data set [6] was 4.12.
As to `COc1cc(-c2cnnc(NS(=O)(=O)c3cc(C(=O)Nc4ccc(C)cc4)c(Cl)cc3SCc3ccccc3)n2)cc(OC)c1OC` [Compound 19], in data set [1], the logkIAM is reported as 1.93 and the CHIIAM was found to be 33.60. In data set [2], the chromatographic logD amounted to 2.72 and the CHIC18 worked out at 79.70. Further, in data set [3], the “logkw, Table S4” value worked out at 4.068 and the logkwC8 was 4.07. In data set [4], the “logkw, Table S5” value came out at 2.216 and the logkwCN was 2.22. In addition, in data set [5], the “logkw, Table S6” value worked out at 3.967 and the logkwPh is listed as 3.97. Further, in data set [6], the pIC50 is given as 4.12.
